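96-well plates; 48 h exposure; 5 concentrations. Endpoints by linear interpolation between flanking doses. Not reached: highest tested concentration assigned. GI50: concentration for 50% inhibition of growth.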 Active and inactive are the calls of the source. No stated cut-off is given here; in the data, active = GI50 up to about 1.1 µM and inactive = higher.
Experiments:
Assay in all cases: inhibition of tumour cell growth, NCI panel, 48 h
OVCAR-3 = tested on: OVCAR-3
LOX IMVI = tested on: LOX IMVI
786-0 = tested on: 786-0
OVCAR-8 = tested on: OVCAR-8
SF-295 = tested on: SF-295
KM12 = tested on: KM12
NCI-H522 = tested on: NCI-H522
HCT-15 = tested on: HCT-15
UACC-257 = tested on: UACC-257
SK-MEL-28 = tested on: SK-MEL-28
M14 = tested on: M14
UO-31 = tested on: UO-31
TK-10 = tested on: TK-10
COLO 205 = tested on: COLO 205
NCI-H226 = tested on: NCI-H226
RPMI-8226 = tested on: RPMI-8226
CAKI-1 = tested on: CAKI-1

COc1ccc2c(c1)[n+]([O-])c(C(=O)C/C(=N/NC(=O)c1ccccc1O)C(=O)Nc1ccc(Cl)c(C(F)(F)F)c1)c(C)[n+]2[O-] was tested. Which GI50 (OVCAR-3) did it give?
Its GI50 is 28.9 µM (inactive).

And the GI50 (LOX IMVI)?
The GI50 was 79.8 µM (inactive).

What about the GI50 (786-0) of the same molecule?
The GI50 was 54.5 µM (inactive).

What about the GI50 (OVCAR-8) of the same molecule?
The GI50 was 43.8 µM (inactive).

What about the GI50 (SF-295) of the same molecule?
Its GI50 is 72.3 µM (inactive).

And the GI50 (KM12)?
Its GI50 is 89.1 µM (inactive).

What about the GI50 (NCI-H522) of the same molecule?
Its GI50 is 39.6 µM (inactive).

And the GI50 (HCT-15)?
Its GI50 is 43.7 µM.

What about the GI50 (UACC-257) of the same molecule?
The GI50 was 91.6 µM (inactive).

What about the GI50 (SK-MEL-28) of the same molecule?
Its GI50 is > 100 µM (inactive).

And the GI50 (M14)?
The GI50 was 51.4 µM (inactive).

And the GI50 (UO-31)?
Its GI50 is 20.7 µM (inactive).

And the GI50 (TK-10)?
Its GI50 is 50.5 µM (inactive).

And the GI50 (COLO 205)?
The GI50 was 71 µM (inactive).

What about the GI50 (NCI-H226) of the same molecule?
Its GI50 is > 100 µM (inactive).

Which results are given for CCN(CC)CCC(=O)NC1c2ccccc2Oc2c(C)cccc21 (stereo not given)?
GI50 (RPMI-8226): > 100 µM (inactive); GI50 (LOX IMVI): > 100 µM (inactive); GI50 (786-0): > 100 µM (inactive); GI50 (OVCAR-8): > 100 µM (inactive); GI50 (HCT-15): > 100 µM; GI50 (UACC-257): > 100 µM (inactive); GI50 (SK-MEL-28): > 100 µM (inactive); GI50 (M14): > 100 µM (inactive); GI50 (UO-31): 63.7 µM (inactive); GI50 (TK-10): > 100 µM (inactive); GI50 (COLO 205): > 100 µM (inactive); GI50 (NCI-H226): > 100 µM (inactive)

Which GI50 (RPMI-8226) does the source give for CC(C)(C)[Si](Nc1ccccc1)(c1ccccc1)c1ccccc1 here?
Its GI50 is 16.8 µM (inactive).

And the GI50 (OVCAR-3)?
The GI50 was 14.3 µM (inactive).

And the GI50 (LOX IMVI)?
The GI50 was 12.2 µM (inactive).

And the GI50 (786-0)?
Its GI50 is 15 µM (inactive).

What about the GI50 (OVCAR-8) of the same molecule?
Its GI50 is 17.7 µM (inactive).

What about the GI50 (SF-295) of the same molecule?
Its GI50 is 13.3 µM (inactive).

And the GI50 (KM12)?
Its GI50 is 13.9 µM (inactive).

What about the GI50 (NCI-H522) of the same molecule?
The GI50 was > 10 µM (inactive).

What about the GI50 (HCT-15) of the same molecule?
The GI50 was 15 µM.

And the GI50 (UACC-257)?
Its GI50 is 14.9 µM (inactive).

And the GI50 (SK-MEL-28)?
The GI50 was 16.6 µM (inactive).

What about the GI50 (M14) of the same molecule?
Its GI50 is 14 µM (inactive).

What about the GI50 (UO-31) of the same molecule?
The GI50 was 5.79 µM (inactive).

And the GI50 (TK-10)?
The GI50 was 14.5 µM (inactive).

And the GI50 (COLO 205)?
Its GI50 is 15.3 µM (inactive).

What about the GI50 (NCI-H226) of the same molecule?
The GI50 was 15.3 µM (inactive).

For C[s+]1c2ccccc2c2ccccc21, which GI50 (RPMI-8226) is on record?
Its GI50 is > 100 µM (inactive).

What about the GI50 (OVCAR-3) of the same molecule?
The GI50 was > 100 µM (inactive).

And the GI50 (LOX IMVI)?
Its GI50 is > 100 µM (inactive).

What about the GI50 (786-0) of the same molecule?
The GI50 was > 100 µM (inactive).

What about the GI50 (OVCAR-8) of the same molecule?
The GI50 was > 100 µM (inactive).

What about the GI50 (SF-295) of the same molecule?
Its GI50 is > 100 µM (inactive).

What about the GI50 (KM12) of the same molecule?
The GI50 was > 100 µM (inactive).

And the GI50 (NCI-H522)?
Its GI50 is > 100 µM (inactive).

What about the GI50 (HCT-15) of the same molecule?
Its GI50 is 92 µM.

And the GI50 (SK-MEL-28)?
The GI50 was > 100 µM (inactive).

And the GI50 (M14)?
Its GI50 is > 100 µM (inactive).

And the GI50 (UO-31)?
Its GI50 is 34.2 µM (inactive).

And the GI50 (TK-10)?
Its GI50 is > 100 µM (inactive).

And the GI50 (COLO 205)?
Its GI50 is > 100 µM (inactive).

What about the GI50 (NCI-H226) of the same molecule?
Its GI50 is 58.5 µM (inactive).

Which results are given for O=C1OC2C(O)COC2(O)C1(O)Cc1c[nH]c2ccccc12 (stereo not given)?
GI50 (RPMI-8226): > 100 µM (inactive); GI50 (OVCAR-3): > 100 µM (inactive); GI50 (LOX IMVI): > 100 µM (inactive); GI50 (786-0): > 100 µM (inactive); GI50 (OVCAR-8): > 100 µM (inactive); GI50 (SF-295): > 100 µM (inactive); GI50 (KM12): > 100 µM (inactive); GI50 (NCI-H522): > 100 µM (inactive); GI50 (HCT-15): > 100 µM; GI50 (UACC-257): > 100 µM (inactive); GI50 (M14): > 100 µM (inactive); GI50 (CAKI-1): > 100 µM (inactive); GI50 (UO-31): > 100 µM (inactive); GI50 (TK-10): > 100 µM (inactive); GI50 (COLO 205): > 100 µM (inactive); GI50 (NCI-H226): > 100 µM (inactive)

With CCOC(=O)C(=O)CC(=O)C(Br)C(Br)c1ccc(Cl)cc1 (stereo not given) as the molecule, how does the GI50 (RPMI-8226) read?
The GI50 was 22.3 µM (inactive).

And the GI50 (OVCAR-3)?
Its GI50 is 23.3 µM (inactive).

And the GI50 (LOX IMVI)?
The GI50 was 29.2 µM (inactive).

What about the GI50 (786-0) of the same molecule?
Its GI50 is 17.5 µM (inactive).

What about the GI50 (OVCAR-8) of the same molecule?
Its GI50 is 34.9 µM (inactive).

What about the GI50 (SF-295) of the same molecule?
Its GI50 is > 100 µM (inactive).

What about the GI50 (KM12) of the same molecule?
Its GI50 is 57.9 µM (inactive).

And the GI50 (NCI-H522)?
Its GI50 is 23.6 µM (inactive).

And the GI50 (HCT-15)?
The GI50 was 33.5 µM.

And the GI50 (UACC-257)?
Its GI50 is 29.5 µM (inactive).

What about the GI50 (SK-MEL-28) of the same molecule?
Its GI50 is 29.7 µM (inactive).

And the GI50 (M14)?
The GI50 was 21.8 µM (inactive).

And the GI50 (CAKI-1)?
Its GI50 is 40.7 µM (inactive).

What about the GI50 (UO-31) of the same molecule?
Its GI50 is > 100 µM (inactive).

What about the GI50 (TK-10) of the same molecule?
The GI50 was 52.2 µM (inactive).

What about the GI50 (COLO 205) of the same molecule?
Its GI50 is 23.3 µM (inactive).

With CC1=C(C(=O)CC(=O)C(=O)Nc2ccc(Cl)cc2C)Sc2ccccc2N1 as the molecule, how does the GI50 (RPMI-8226) read?
The GI50 was > 100 µM (inactive).

What about the GI50 (OVCAR-3) of the same molecule?
Its GI50 is > 100 µM (inactive).

What about the GI50 (LOX IMVI) of the same molecule?
The GI50 was > 100 µM (inactive).

And the GI50 (786-0)?
Its GI50 is > 100 µM (inactive).

And the GI50 (OVCAR-8)?
The GI50 was > 100 µM (inactive).

What about the GI50 (SF-295) of the same molecule?
The GI50 was > 100 µM (inactive).

And the GI50 (KM12)?
Its GI50 is > 100 µM (inactive).

And the GI50 (NCI-H522)?
The GI50 was > 84.7 µM (inactive).

What about the GI50 (HCT-15) of the same molecule?
Its GI50 is greater than 100 µM.

And the GI50 (UACC-257)?
The GI50 was > 100 µM (inactive).

What about the GI50 (SK-MEL-28) of the same molecule?
Its GI50 is > 100 µM (inactive).

And the GI50 (M14)?
The GI50 was > 100 µM (inactive).

What about the GI50 (CAKI-1) of the same molecule?
Its GI50 is > 100 µM (inactive).

And the GI50 (UO-31)?
The GI50 was > 100 µM (inactive).

What about the GI50 (TK-10) of the same molecule?
The GI50 was > 100 µM (inactive).

What about the GI50 (COLO 205) of the same molecule?
Its GI50 is > 100 µM (inactive).

With Nc1nc(SCCC/C=C/I)nc2c1ncn2C1OC(COP(=O)(O)O)C(O)C1O (stereo not given) as the molecule, how does the GI50 (OVCAR-3) read?
The GI50 was > 100 µM (inactive).

What about the GI50 (LOX IMVI) of the same molecule?
The GI50 was > 100 µM (inactive).

What about the GI50 (OVCAR-8) of the same molecule?
The GI50 was > 100 µM (inactive).

And the GI50 (SF-295)?
The GI50 was > 100 µM (inactive).

And the GI50 (KM12)?
Its GI50 is > 100 µM (inactive).

And the GI50 (NCI-H522)?
The GI50 was > 100 µM (inactive).

What about the GI50 (HCT-15) of the same molecule?
The GI50 was greater than 100 µM.

And the GI50 (UACC-257)?
The GI50 was > 100 µM (inactive).

What about the GI50 (SK-MEL-28) of the same molecule?
Its GI50 is > 100 µM (inactive).

What about the GI50 (M14) of the same molecule?
Its GI50 is > 100 µM (inactive).

What about the GI50 (TK-10) of the same molecule?
Its GI50 is > 100 µM (inactive).

And the GI50 (COLO 205)?
The GI50 was > 100 µM (inactive).

And the GI50 (NCI-H226)?
The GI50 was > 100 µM (inactive).

Which results are given for N=C(N)NS(=O)(=O)c1ccc(NC(=O)c2cccc3c(Nc4ccc(S(=O)(=O)N=C(N)N)cc4)c4ccccc4nc23)cc1?
GI50 (RPMI-8226): > 100 µM (inactive); GI50 (OVCAR-3): 50.1 µM (inactive); GI50 (LOX IMVI): 43.3 µM (inactive); GI50 (786-0): 50.9 µM (inactive); GI50 (OVCAR-8): 32.3 µM (inactive); GI50 (SF-295): 88.1 µM (inactive); GI50 (KM12): 33.4 µM (inactive); GI50 (NCI-H522): 7.94 µM (inactive); GI50 (HCT-15): > 100 µM; GI50 (UACC-257): > 100 µM (inactive); GI50 (SK-MEL-28): 82.8 µM (inactive); GI50 (M14): 50.8 µM (inactive); GI50 (CAKI-1): > 10 µM (inactive); GI50 (UO-31): > 100 µM (inactive); GI50 (TK-10): 52 µM (inactive); GI50 (COLO 205): 31.3 µM (inactive)

From ChEMBL document CHEMBL1201862, “PubChem BioAssay data set” (2004)
